Source: patent US9133122B2, “Amide compounds, compositions and uses thereof” (EVOTEC AG, priority 2008, dated 2015)

Legend:
[1] = target: T1, hP2X3 (Homo sapiens, UniProt P56373); experiment: Calcium uptake assay (Ca influx), P2X antagonist assay, P2X3 homomer; assay type: cell-based; conditions: inhibition of agonist-induced calcium influx
T1 construct: expressed in transfected cells
T1 sequence (P56373 1-397): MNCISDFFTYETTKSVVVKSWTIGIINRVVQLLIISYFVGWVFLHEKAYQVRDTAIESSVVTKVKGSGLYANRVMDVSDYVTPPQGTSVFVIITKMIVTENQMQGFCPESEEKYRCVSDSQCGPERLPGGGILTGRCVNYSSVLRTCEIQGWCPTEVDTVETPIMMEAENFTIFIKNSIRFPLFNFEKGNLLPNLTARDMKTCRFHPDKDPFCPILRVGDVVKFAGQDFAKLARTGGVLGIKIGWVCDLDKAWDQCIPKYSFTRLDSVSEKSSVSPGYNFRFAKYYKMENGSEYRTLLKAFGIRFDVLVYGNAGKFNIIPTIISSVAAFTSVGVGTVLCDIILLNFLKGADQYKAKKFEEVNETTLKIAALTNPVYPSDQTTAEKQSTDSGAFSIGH
Procedure, shortened: (§1)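 Receptors expressed in HEK293 or 1321N1 cells, transiently or stably; heteromer from P2X3 transfected into P2X2-stable line. Fluo-4-type dye in HBSS; compound pre-treatment 1–30 min, then agonist (αβMeATP, ATP or analog) at EC50-90. FLIPR peak minus baseline fluorescence; IC50 by 4-parameter fit, 1 pM–10 μM.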

[2] = target: T2, hP2X2/3H (Homo sapiens, UniProt P56373+Q9UBL9); experiment: Calcium uptake assay (Ca influx), P2X antagonist assay, P2X2/3 heteromer; assay type: cell-based; conditions: inhibition of agonist-induced calcium influx
T2 construct: expressed in transfected cells
T2 sequence (P56373 1-397): T1 sequence (P56373 1-397)
T2 sequence (Q9UBL9 1-471): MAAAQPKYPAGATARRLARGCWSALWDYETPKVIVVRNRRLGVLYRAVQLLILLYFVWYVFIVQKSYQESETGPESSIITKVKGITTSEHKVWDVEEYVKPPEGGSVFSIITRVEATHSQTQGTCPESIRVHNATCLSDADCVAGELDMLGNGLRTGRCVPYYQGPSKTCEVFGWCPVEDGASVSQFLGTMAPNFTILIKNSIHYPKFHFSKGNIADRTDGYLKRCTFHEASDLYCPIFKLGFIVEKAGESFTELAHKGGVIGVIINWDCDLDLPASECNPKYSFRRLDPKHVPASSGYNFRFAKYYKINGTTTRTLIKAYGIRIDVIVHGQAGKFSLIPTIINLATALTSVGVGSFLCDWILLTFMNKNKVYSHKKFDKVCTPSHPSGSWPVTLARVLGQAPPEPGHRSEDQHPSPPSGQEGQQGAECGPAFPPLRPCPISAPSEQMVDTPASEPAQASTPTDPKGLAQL
Procedure, shortened: as §1

| IC50 [1] [nM] | IC50 [2] [nM] | SMILES |
| --- | --- | --- |
| 309 | 503 | Cc1ccc(-c2cc(C(=O)NCc3ccc(C)nc3)cc(-c3ccc(CO)cc3)c2)cc1 [Compound 26, 4″-Hydroxymethyl-4-methyl-[1,1′;3′,1″]terphenyl-5′-carboxylic acid (6-methyl-pyridin-3-ylmethyl)-amide] |
| 138 | 5580 | COCC(CO)NC(=O)c1cc(-c2ccc(C)cn2)cc(-c2cc(C)ccc2C#N)c1 (centres unmarked) [Compound 74, 2′-Cyano-5′-methyl-5-(5-methyl-pyridin-2-yl)-biphenyl-3-carboxylic acid (2-hydroxy-1-methoxymethyl-ethyl)-amide] |
| 1960 | 8310 | Cc1ccc(-c2cc(C(=O)NCc3ccc(C)nc3)cc(-c3ccc(F)cc3F)c2)cc1 [Compound 5, 2″,4″-Difluoro-4-methyl-[1,1′;3′,1″]terphenyl-5′-carboxylic acid (6-methyl-pyridin-3-ylmethyl)-amide] |
| 71.8 | 444 | Cc1ccc(-c2cc(C(=O)N[C@@H](C)CO)cc(-c3cc(C(F)(F)F)ccc3C#N)c2)nc1 [Compound 79, 2′-Cyano-5-(5-methyl-pyridin-2-yl)-5′-trifluoromethyl-biphenyl-3-carboxylic acid ((S)-2-hydroxy-1-methyl-ethyl)-amide] |
| 23.8 | 37 | Cc1ccc(-c2cc(C(=O)N[C@H](C)c3ccc(C)nc3)cc(N3CCCC3=O)c2)cc1 [Compound 51, 4′-Methyl-5-(2-oxo-pyrrolidin-1-yl)-biphenyl-3-carboxylic acid [(R)-1-(6-methyl-pyridin-3-yl)-ethyl]-amide] |
| 58.8 | 87.6 | Cc1ccc(-c2cc(C(=O)NCc3cnc(C)nc3)cc(-c3ccc(C)cn3)c2)cc1 [Compound 1, 4′-Methyl-5-(5-methyl-pyridin-2-yl)-biphenyl-3-carboxylic acid (2-methyl-pyrimidin-5-ylmethyl)-amide] |
| 29.1 | 36.8 | Cc1ccc(-c2cc(C(=O)N[C@H](C)c3cnc(C)nc3)cc(-c3ccccc3C(N)=O)c2)nc1 [Compound 47, 5′-(5-Methyl-pyridin-2-yl)-biphenyl-2,3′-dicarboxylic acid 2-amide 3′-{[(R)-1-(2-methyl-pyrimidin-5-yl)-ethyl]-amide}] |
| 10.3 | 850 | Cc1ccc(-c2cc(C(=O)N[C@@H](C)CO)cc(-c3cnccc3C#N)c2)nc1 [Compound 84, 3-(4-Cyano-pyridin-3-yl)-N-((S)-2-hydroxy-1-methyl-ethyl)-5-(5-methyl-pyridin-2-yl)-benzamide] |

Further lines, the compound ahead of its results:

| SMILES | IC50 [1] [nM] | IC50 [2] [nM] |
| --- | --- | --- |
| Cc1ccc(-c2cc(C(=O)NCc3cnc(C)nc3)cc(N3CCCCC3=O)c2)cc1 [Compound 38] | 80.7 | 226 |
| Cc1ccc(-c2cc(C(=O)NCc3ccc(C)nc3)cc(N3CCNCC3=O)c2)c(C#N)c1 [Compound 65, 2′-Cyano-4′-methyl-5-(2-oxo-piperazin-1-yl)-biphenyl-3-carboxylic acid (6-methyl-pyridin-3-ylmethyl)-amide] | 117 | 1060 |
| COc1ncc(-c2cc(C(=O)NCc3ccc(C)nc3)cc(-c3ccc(C)cn3)c2)cn1 [Compound 16, 3-(2-Methoxy-pyrimidin-5-yl)-5-(5-methyl-pyridin-2-yl)-N-(6-methyl-pyridin-3-ylmethyl)-benzamide] | 95.6 | 269 |
| Cc1ccc(-c2cc(C(=O)NCc3ccc(C)nc3)cc(N3CCN(C)CC3=O)c2)c(C#N)c1 [Compound 67, 2′-Cyano-4′-methyl-5-(4-methyl-2-oxo-piperazin-1-yl)-biphenyl-3-carboxylic acid (6-methyl-pyridin-3-ylmethyl)-amide] | 102 | 667 |
| Cc1ccc(-c2cc(C(=O)NCc3ccc(C)nc3)cc(N3CCN(C)CC3=O)c2)cc1 [Compound 68, 4′-Methyl-5-(4-methyl-2-oxo-piperazin-1-yl)-biphenyl-3-carboxylic acid (6-methyl-pyridin-3-ylmethyl)-amide] | 371 | 1390 |
| Cc1ccc(-c2cc(C(=O)NCc3ccc(C)nc3)cc(-c3ccccc3F)c2)cc1 [Compound 6, 2″-Fluoro-4-methyl-[1,1′;3′,1″]terphenyl-5′-carboxylic acid (6-methyl-pyridin-3-ylmethyl)-amide] | 342 | 418 |
| COc1ccccc1-c1cc(C(=O)NCc2ccc(C)nc2)cc(-c2ccc(C)cc2)c1 [Compound 4, 2″-Methoxy-4-methyl-[1,1′;3′,1″]terphenyl-5′-carboxylic acid (6-methyl-pyridin-3-ylmethyl)-amide] | 306 | 1060 |
| Cc1ccc(-c2cc(C(=O)N[C@H](C)CN3CCOCC3)cc(-c3c(F)cccc3C(F)(F)F)c2)nc1 [Compound 83, 2′-Fluoro-5-(5-methyl-pyridin-2-yl)-6′-trifluoromethyl-biphenyl-3-carboxylic acid ((R)-1-methyl-2-morpholin-4-yl-ethyl)-amide] | 72.1 | 26 |
| Cc1ccc(-c2cc(C(=O)N[C@H](C)CN3CCOCC3)cc(-c3cccc(F)c3F)c2)nc1 [Compound 77, (R)-2′,3′-difluoro-5-(5-methylpyridin-2-yl)-N-(1-morpholinopropan-2-yl)biphenyl-3-carboxamide] | 99.5 | 373 |
| Cc1ccc(-c2cc(C(=O)NCc3ccc(C)nc3)cc(-c3ccccc3C#N)c2)nc1 [Compound 17, 2′-Cyano-5-(5-methyl-pyridin-2-yl)-biphenyl-3-carboxylic acid (6-methyl-pyridin-3-ylmethyl)-amide] | 21.6 | 24.5 |
| Cc1ccc(-c2cc(C(=O)NCc3ccc(C)nc3)cc(-c3ccncc3)c2)cc1 [Compound 22, 4′-Methyl-5-pyridin-4-yl-biphenyl-3-carboxylic acid (6-methyl-pyridin-3-ylmethyl)-amide] | 191 | 143 |
